How the values were obtained:
[1] = molecular target: Calcium/calmodulin-dependent protein kinase kinase 1 (Homo sapiens, UniProt Q8N5S9)
[2] = molecular target: Serine/threonine-protein kinase PAK 5 (Homo sapiens, UniProt Q9P286)
Angiopoietin-1 receptor = Angiopoietin-1 receptor (Homo sapiens, UniProt Q02763)
[3] = molecular target: Serine/threonine-protein kinase 16 (Homo sapiens, UniProt O75716)
[4] = molecular target: Tyrosine-protein kinase Fyn (Homo sapiens, UniProt P06241)
LIM domain kinase 1 = LIM domain kinase 1 (Homo sapiens, UniProt P53667)
Sequence of LIM domain kinase 1 (P53667 whole entry, the tested form may be a part): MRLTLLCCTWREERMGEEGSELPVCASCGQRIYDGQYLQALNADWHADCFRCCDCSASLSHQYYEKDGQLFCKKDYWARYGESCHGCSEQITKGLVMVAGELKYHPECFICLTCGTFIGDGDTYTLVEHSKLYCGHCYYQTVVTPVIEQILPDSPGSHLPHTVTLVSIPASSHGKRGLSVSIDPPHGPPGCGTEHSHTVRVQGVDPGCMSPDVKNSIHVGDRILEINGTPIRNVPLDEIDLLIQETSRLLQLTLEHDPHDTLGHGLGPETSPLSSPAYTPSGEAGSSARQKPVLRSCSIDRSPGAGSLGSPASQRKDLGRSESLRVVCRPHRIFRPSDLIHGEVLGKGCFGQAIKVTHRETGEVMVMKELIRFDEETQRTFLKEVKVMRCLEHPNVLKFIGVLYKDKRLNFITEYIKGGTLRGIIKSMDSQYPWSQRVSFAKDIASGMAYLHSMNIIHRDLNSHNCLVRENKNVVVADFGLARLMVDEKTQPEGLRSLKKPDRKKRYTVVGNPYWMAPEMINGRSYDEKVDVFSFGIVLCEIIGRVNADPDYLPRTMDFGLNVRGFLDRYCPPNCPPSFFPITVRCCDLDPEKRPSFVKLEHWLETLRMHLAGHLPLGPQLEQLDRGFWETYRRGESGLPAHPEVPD

[5] = molecular target: T1, Dual specificity protein kinase TTK (Homo sapiens, UniProt P33981)
T1 sequence (P33981 whole entry): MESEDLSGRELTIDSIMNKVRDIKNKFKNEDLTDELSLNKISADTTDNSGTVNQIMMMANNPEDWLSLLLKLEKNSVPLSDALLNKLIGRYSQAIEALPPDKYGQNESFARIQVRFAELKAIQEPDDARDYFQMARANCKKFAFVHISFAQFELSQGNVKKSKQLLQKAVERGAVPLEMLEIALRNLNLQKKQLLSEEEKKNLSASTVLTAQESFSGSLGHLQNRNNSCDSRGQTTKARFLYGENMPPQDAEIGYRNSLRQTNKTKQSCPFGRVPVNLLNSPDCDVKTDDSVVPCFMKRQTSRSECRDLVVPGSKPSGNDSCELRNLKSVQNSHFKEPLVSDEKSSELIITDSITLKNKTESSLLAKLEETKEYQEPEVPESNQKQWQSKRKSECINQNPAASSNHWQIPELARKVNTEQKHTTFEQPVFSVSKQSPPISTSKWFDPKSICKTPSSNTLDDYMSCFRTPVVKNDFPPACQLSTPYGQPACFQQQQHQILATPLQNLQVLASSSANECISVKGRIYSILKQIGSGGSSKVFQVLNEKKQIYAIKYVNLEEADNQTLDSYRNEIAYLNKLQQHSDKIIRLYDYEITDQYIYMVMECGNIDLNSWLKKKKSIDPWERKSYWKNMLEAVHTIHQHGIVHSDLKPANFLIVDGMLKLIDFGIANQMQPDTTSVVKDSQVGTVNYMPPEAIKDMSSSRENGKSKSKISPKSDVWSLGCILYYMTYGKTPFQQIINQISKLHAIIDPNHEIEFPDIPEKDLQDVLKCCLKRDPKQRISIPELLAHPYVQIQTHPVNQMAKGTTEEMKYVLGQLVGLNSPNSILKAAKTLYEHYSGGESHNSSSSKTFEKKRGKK

Ephrin type-B receptor 4 = molecular target: T2, Ephrin type-B receptor 4 (Homo sapiens, UniProt P54760)
T2 sequence (P54760 whole entry): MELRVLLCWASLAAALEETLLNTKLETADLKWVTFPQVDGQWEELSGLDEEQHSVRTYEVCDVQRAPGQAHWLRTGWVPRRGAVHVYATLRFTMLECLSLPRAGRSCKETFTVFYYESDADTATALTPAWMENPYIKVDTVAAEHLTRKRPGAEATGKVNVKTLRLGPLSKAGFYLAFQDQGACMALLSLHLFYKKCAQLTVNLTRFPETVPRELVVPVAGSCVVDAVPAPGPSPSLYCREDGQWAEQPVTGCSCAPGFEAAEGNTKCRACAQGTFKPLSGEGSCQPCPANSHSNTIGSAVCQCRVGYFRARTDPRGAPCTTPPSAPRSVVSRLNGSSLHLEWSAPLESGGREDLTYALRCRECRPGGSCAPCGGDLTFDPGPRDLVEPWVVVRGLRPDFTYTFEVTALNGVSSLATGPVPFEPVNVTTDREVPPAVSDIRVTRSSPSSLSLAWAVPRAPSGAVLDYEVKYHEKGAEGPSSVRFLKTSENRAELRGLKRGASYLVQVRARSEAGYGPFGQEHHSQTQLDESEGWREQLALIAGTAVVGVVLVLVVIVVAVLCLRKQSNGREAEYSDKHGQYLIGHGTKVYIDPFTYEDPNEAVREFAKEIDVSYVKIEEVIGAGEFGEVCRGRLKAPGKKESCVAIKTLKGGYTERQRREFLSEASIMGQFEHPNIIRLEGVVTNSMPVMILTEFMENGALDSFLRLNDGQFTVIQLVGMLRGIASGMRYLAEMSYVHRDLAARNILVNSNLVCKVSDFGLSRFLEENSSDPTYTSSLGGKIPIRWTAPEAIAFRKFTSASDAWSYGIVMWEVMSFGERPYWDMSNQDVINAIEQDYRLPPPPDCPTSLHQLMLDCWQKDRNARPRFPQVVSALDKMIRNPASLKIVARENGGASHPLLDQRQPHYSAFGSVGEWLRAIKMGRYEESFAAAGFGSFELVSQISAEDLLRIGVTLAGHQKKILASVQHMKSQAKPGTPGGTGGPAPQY

[6] = molecular target: MAP kinase-interacting serine/threonine-protein kinase 2 (Homo sapiens, UniProt Q9HBH9)
Sequence of MAP kinase-interacting serine/threonine-protein kinase 2 (Q9HBH9 whole entry): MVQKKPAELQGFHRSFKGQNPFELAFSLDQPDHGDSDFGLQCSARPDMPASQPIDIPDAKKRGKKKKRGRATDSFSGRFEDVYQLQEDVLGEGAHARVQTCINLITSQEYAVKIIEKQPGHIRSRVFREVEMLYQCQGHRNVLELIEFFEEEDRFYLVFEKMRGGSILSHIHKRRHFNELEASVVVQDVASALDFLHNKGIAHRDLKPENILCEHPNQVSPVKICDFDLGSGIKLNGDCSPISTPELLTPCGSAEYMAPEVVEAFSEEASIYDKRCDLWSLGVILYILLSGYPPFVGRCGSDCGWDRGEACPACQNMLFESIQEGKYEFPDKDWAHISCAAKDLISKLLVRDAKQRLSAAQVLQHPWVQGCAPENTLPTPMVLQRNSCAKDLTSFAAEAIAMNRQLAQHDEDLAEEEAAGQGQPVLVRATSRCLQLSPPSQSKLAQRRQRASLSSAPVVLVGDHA

[7] = molecular target: BMP-2-inducible protein kinase (Homo sapiens, UniProt Q9NSY1)
Sequence of BMP-2-inducible protein kinase (Q9NSY1 whole entry): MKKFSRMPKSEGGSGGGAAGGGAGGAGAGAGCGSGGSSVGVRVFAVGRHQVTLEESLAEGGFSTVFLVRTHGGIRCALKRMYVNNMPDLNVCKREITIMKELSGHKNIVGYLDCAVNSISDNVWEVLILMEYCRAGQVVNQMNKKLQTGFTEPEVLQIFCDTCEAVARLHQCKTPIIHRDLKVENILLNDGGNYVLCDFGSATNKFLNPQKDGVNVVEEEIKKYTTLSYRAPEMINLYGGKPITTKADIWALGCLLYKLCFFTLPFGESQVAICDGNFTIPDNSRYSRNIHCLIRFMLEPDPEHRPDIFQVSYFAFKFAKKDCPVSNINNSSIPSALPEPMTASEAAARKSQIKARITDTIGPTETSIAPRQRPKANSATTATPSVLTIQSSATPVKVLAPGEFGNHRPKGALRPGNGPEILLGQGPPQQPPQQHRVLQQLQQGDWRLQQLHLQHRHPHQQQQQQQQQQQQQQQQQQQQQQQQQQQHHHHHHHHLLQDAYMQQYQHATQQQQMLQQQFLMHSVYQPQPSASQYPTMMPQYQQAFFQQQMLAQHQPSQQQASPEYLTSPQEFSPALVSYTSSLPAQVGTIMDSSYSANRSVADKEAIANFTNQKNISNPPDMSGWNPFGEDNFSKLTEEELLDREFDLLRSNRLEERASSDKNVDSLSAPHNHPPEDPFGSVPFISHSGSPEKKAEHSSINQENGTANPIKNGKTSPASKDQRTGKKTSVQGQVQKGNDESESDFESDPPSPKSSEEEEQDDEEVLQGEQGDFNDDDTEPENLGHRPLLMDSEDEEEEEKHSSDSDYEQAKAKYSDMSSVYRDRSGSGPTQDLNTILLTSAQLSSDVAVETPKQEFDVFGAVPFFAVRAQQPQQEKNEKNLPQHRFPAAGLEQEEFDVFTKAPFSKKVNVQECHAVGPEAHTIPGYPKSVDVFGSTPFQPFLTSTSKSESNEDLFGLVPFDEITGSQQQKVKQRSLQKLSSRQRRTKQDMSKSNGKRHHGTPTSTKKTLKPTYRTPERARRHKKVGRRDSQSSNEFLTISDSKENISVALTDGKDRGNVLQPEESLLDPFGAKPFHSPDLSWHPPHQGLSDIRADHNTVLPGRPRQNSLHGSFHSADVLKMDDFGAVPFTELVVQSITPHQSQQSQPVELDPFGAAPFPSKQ

Measured: Kd

Sequence of Tyrosine-protein kinase Fyn (P06241 whole entry, the tested form may be a part): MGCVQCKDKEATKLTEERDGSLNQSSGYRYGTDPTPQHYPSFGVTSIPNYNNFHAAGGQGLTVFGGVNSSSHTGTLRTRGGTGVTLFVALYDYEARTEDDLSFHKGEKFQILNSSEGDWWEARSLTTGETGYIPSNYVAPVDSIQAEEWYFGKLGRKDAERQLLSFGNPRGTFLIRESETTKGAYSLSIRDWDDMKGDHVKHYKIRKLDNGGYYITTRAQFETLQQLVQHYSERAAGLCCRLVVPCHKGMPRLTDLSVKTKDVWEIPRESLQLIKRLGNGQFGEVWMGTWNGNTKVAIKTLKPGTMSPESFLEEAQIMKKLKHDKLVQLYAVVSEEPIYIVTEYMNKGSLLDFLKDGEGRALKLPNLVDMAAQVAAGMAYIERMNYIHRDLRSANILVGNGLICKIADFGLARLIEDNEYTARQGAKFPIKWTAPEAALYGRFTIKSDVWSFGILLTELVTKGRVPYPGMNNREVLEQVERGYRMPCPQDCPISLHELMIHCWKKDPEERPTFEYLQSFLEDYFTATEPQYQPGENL
Sequence of Calcium/calmodulin-dependent protein kinase kinase 1 (Q8N5S9 whole entry): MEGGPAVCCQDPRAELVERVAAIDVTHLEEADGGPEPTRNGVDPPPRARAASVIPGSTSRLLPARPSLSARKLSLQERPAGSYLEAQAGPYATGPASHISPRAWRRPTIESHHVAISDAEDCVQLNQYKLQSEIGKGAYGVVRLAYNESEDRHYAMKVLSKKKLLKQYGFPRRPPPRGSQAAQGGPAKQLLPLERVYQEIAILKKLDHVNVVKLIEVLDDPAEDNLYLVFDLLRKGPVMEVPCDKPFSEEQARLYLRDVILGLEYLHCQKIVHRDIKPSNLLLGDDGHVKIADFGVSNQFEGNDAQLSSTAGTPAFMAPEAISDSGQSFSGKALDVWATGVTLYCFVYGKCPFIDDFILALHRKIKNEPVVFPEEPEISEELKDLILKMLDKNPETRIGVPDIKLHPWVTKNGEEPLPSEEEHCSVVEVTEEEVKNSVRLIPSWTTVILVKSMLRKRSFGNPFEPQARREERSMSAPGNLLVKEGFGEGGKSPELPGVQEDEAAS
Sequence of Serine/threonine-protein kinase 16 (O75716 whole entry): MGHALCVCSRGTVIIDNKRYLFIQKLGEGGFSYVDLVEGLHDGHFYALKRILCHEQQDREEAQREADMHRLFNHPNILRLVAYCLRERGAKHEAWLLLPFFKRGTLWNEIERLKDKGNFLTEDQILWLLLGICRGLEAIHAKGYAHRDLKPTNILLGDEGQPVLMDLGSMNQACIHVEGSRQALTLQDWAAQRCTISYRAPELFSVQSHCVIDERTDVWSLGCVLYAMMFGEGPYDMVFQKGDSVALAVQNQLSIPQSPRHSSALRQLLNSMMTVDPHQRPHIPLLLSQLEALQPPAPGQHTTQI
Sequence of Angiopoietin-1 receptor (Q02763 whole entry): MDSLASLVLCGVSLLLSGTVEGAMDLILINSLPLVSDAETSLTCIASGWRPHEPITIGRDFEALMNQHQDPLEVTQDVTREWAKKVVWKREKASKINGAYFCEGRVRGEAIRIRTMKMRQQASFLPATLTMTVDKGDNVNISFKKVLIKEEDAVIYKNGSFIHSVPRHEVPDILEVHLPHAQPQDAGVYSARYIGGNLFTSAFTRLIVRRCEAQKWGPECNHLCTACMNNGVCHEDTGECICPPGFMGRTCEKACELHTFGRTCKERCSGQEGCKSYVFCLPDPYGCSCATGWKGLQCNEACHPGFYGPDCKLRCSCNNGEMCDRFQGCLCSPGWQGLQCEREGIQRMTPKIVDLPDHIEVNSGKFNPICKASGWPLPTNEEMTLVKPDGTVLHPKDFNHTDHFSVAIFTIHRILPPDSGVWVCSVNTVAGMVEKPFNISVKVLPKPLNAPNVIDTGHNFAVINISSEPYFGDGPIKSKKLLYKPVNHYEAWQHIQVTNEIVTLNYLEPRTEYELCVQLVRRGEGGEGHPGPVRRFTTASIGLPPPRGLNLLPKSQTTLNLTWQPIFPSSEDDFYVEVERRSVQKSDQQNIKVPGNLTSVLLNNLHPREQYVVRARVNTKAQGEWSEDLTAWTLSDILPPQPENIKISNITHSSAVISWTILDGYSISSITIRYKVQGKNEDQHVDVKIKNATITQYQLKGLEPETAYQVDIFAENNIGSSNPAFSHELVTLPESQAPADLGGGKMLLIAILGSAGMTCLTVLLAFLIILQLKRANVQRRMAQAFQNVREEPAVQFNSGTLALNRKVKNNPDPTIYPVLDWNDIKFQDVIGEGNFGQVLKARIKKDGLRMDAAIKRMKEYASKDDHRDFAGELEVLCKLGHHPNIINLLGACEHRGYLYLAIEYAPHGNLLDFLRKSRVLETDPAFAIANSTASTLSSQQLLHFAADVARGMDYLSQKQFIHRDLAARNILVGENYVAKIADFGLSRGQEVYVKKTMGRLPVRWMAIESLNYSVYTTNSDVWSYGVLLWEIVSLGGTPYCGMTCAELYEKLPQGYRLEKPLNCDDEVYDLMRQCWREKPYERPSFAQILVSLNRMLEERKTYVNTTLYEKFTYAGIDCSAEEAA

C#Cc1cccc(Nc2ncnc3cc(OCCOC)c(OCCOC)cc23)c1 [ERLOTINIB]
Not Active: [1] | [2] | Angiopoietin-1 receptor | [3] | [4] | LIM domain kinase 1 | [5] | Ephrin type-B receptor 4

Cc1ccc(NC(=O)c2ccc(CN3CCN(C)CC3)cc2)cc1Nc1nccc(-c2cccnc2)n1 [IMATINIB]
Not Active: [1] | [2] | [6] | Angiopoietin-1 receptor | [3] | LIM domain kinase 1 | [5] | [7] | Ephrin type-B receptor 4

O=c1ncn2nc(Sc3ccc(F)cc3F)ccc2c1-c1c(Cl)cccc1Cl [NEFLAMAPIMOD]
Not Active: [1] | [2] | [6] | Angiopoietin-1 receptor | [3] | [4] | LIM domain kinase 1 | [5] | [7]

CCOc1cc2ncc(C#N)c(Nc3ccc(F)c(Cl)c3)c2cc1NC(=O)/C=C/CN(C)C [PELITINIB]
Not Active: [1] | [2] | [6] | [3] | LIM domain kinase 1 | [5]

Oc1ccc(-c2nc(-c3ccc(F)cc3)c(-c3ccncc3)[nH]2)cc1 [SB-202190]
Not Active: [1] | [2] | [6] | Angiopoietin-1 receptor | [3] | [4] | LIM domain kinase 1 | [5] | [7] | Ephrin type-B receptor 4

C[S+]([O-])c1ccc(-c2nc(-c3ccc(F)cc3)c(-c3ccncc3)[nH]2)cc1 (configuration not stated) [SB-203580]
Not Active: [1] | [2] | [6] | Angiopoietin-1 receptor | [3] | [4] | LIM domain kinase 1 | [5] | [7] | Ephrin type-B receptor 4

CC[C@H](CO)Nc1nc(NCc2ccccc2)c2ncn(C(C)C)c2n1 [SELICICLIB]
Not Active: [1] | [2] | [6] | Angiopoietin-1 receptor | [3] | [4] | LIM domain kinase 1 | [7] | Ephrin type-B receptor 4

Oc1c2ccccc2c2c3c(cccc13)N=N2 [SP-600125]
Not Active: [1] | [2] | Angiopoietin-1 receptor | [4] | LIM domain kinase 1 | Ephrin type-B receptor 4

COc1cc2c(N3CCN(C(=O)Nc4ccc(OC(C)C)cc4)CC3)ncnc2cc1OCCCN1CCCCC1 [TANDUTINIB]
Not Active: [1] | [2] | [6] | Angiopoietin-1 receptor | [3] | [4] | LIM domain kinase 1 | [5] | [7] | Ephrin type-B receptor 4

Source: ChEMBL document CHEMBL1144455, “A small molecule-kinase interaction map for clinical kinase inhibitors” (Nat Biotechnol, 2005)
